From patent US9566312B2, “Cyclic peptides and use as medicines” (priority 2012, dated 2017)
Like-named read-outs stand apart in the source and are kept apart here. Starred links: 1 amine or outer side, 2 acyl side, 3 side chain; linkers in the order of their positions; H or OH if unused. Non-standard residues stand in square brackets, D forms with d. Residues, ends and D or L forms follow the SMILES beside them. X56 = CCN1CCN(C(=O)OC[C@@H](C)[C@@H](C(=O)[*:2])N(C)[*:1])CC1; X38 = C[C@@H](CN1CCN2C(=O)OCC2C1)[C@@H](C(=O)[*:2])N(C)[*:1]; X34 = C[C@H](COC(=O)N1CCOCC1)[C@@H](C(=O)[*:2])N(C)[*:1]; X43 = COCCN(C)C[C@@H](C)[C@@H](C(=O)[*:2])N(C)[*:1]; MeBmt = C/C=C/C[C@@H](C)[C@@H](O)[C@H](NC)C(=O)O; NMeL = CN[C@@H](CC(C)C)C(=O)O; NMeV = CN[C@H](C(=O)O)C(C)C; dNMeA = CN[C@H](C)C(=O)O; Abu = CC[C@H](N)C(=O)O

Columns and labels:
cyclophilin B (CypB) = cyclophilin B (CypB) (Homo sapiens (Human), UniProt P23284); assay: Inhibitor binding to cyclophilin proteins by SPR, CypB; design: unit not given here; conditions: 1:1 binding model
Procedure, shortened: (§1)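 Mono-biotinylated avi-tagged cyclophilins were captured on a Biotin CAPture chip and compound injected by single-cycle kinetics in 10 mM HEPES pH 7.4, 150 mM NaCl, 0.05% P20, 3% DMSO. Contact 1 min per concentration at 50 μL/min, 10 min final dissociation; 1:1 model fit gave kon, koff, KD.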

[1] = biological target: organic anion transporting polypeptide 1B1 (OATP1B1) (Homo sapiens (Human), UniProt Q9Y6L6); assay: OATP assay in CHO-OATP1B1 cells;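 also: inhibition of probe substrate uptake into the cells, ten minutes exposure, accumulated substrate read by fluorescence once cells were lysed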
[2] = test system: genotype 1b subgenomic HCV replicon in Huh7.5 cells; format: cell-based, hepatitis C virus; conditions: read-out: RPLN-1b IC50
Procedure, shortened: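 Huh7.5 cells carrying genotype 1b subgenomic HCV replicon with renilla luciferase-neomycin reporter, in phenol red-free DMEM without G418. Luciferase measured after 72 h compound exposure relative to DMSO-treated cells; cytotoxicity (CC50) by Cell Titer-Glo.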

[3] = test system: peripheral blood mononuclear cells (PBMC); assay: Anti-proliferative or immunosuppressive activity, BrdU incorporation in PHA-stimulated PBMC; format: cell-based; conditions: PHA 3 μg/ml, 60 hour compound treatment; read-out: EMV PBMC IC50
Procedure, shortened: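 Fresh PBMCs from two donors, 30,000 per well in X-VIVO 15 medium, stimulated with 3 μg/ml PHA to drive T-cell proliferation. Proliferation measured as BrdU incorporation into DNA by BrdU ELISA.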

CypF = CypF (Homo sapiens (Human), UniProt P30405); assay: Inhibitor binding to cyclophilin proteins by SPR, CypF; conditions: 1:1 binding model
Procedure, shortened: as §1

cyclophilin A (CypA) = cyclophilin A (CypA) (Homo sapiens (Human), UniProt P62937); assay: Inhibitor binding to cyclophilin proteins by SPR, CypA; design: unit not given here; conditions: 1:1 binding model;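 also: Single-cycle kinetics on a Biacore T200, compound injected at several concentrations for 1 min each at 50 µL/min, then 10 min dissociation, in HEPES pH 7.4 buffer with 3% DMSO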
[4] = genotype 1b replicon, 72 h incubation

Sequence of cyclophilin A (CypA) (P62937 whole entry): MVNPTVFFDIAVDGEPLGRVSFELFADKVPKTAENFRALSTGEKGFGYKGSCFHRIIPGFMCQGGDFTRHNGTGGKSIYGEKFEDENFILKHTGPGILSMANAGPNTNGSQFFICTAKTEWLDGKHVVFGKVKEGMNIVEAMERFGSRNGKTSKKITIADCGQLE
Sequence of cyclophilin B (CypB) (P23284 34-216): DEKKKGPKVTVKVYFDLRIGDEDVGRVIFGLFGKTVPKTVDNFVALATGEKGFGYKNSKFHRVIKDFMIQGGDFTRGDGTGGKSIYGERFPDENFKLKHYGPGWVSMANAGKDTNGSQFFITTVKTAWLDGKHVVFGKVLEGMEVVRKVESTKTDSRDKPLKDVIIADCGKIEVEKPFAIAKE
Sequence of organic anion transporting polypeptide 1B1 (OATP1B1) (Q9Y6L6 whole entry): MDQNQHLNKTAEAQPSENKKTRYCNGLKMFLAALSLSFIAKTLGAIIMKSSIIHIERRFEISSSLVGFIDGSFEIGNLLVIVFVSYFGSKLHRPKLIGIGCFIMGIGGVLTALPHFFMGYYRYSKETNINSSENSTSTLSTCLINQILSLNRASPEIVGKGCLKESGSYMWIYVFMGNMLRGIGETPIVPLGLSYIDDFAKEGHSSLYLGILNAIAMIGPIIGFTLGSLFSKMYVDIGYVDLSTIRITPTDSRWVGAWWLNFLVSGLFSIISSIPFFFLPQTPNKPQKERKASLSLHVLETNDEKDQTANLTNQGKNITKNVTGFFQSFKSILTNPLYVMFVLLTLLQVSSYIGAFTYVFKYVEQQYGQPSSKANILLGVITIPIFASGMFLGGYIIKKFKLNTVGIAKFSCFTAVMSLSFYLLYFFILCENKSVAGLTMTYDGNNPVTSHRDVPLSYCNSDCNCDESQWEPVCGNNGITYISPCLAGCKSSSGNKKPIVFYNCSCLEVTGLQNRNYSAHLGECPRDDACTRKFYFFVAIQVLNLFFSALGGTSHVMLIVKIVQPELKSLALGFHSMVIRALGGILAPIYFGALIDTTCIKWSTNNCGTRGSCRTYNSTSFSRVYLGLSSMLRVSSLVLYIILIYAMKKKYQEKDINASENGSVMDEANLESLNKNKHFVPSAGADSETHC
Sequence of CypF (P30405 30-207): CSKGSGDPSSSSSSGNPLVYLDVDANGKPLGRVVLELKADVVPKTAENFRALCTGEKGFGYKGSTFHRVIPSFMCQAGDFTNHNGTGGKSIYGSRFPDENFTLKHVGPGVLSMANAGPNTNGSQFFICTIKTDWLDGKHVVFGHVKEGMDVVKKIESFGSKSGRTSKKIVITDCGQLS

Structure (SMILES) | CypB Kd (cyclophilin B (CypB)) | IC50 [1] [nM] | IC50 [2] [nM] | IC50 [3] [µM] | CypF Kd (CypF) [nM] | CypA Kd (cyclophilin A (CypA)) | IC50 [2, 4] [nM]
C/C=C/C[C@@H](C)[C@@H](O)[C@H]1C(=O)N[C@@H](CC)C(=O)N(C)[C@H](C)C(=O)N(C)[C@@H]([C@H](C)COC(=O)N2CCOCC2)C(=O)N[C@@H](C(C)C)C(=O)N(C)[C@@H](CC(C)C)C(=O)N[C@@H](C)C(=O)N[C@H](C)C(=O)N(C)[C@@H](CC(C)C)C(=O)N(C)[C@@H](CC(C)C)C(=O)N(C)[C@@H](C(C)C)C(=O)N1C [Compound 2.5.7, 3-[D-Ala]-4-[(2S,3S)-3-methyl-2-(methylamino)-4-((morpholine-4-carbonyl)oxy)butanoyl]-cyclosporin] (cyclo([MeBmt][Abu][dNMeA][X34]V[NMeL]A[dA][NMeL][NMeL][NMeV])) | 1.3 | 2300 | 48 | 19.3 | 1.5 | 2.1 | –
C/C=C/C[C@@H](C)[C@@H](O)[C@H]1C(=O)N[C@@H](CC)C(=O)N(C)[C@H](C)C(=O)N(C)[C@@H]([C@H](C)CN(C)CCOC)C(=O)N[C@@H](C(C)C)C(=O)N(C)[C@@H](CC(C)C)C(=O)N[C@@H](C)C(=O)N[C@H](C)C(=O)N(C)[C@@H](CC(C)C)C(=O)N(C)[C@@H](CC(C)C)C(=O)N(C)[C@@H](C(C)C)C(=O)N1C [Compound 2.5.22, 3-[D-Ala]-4-[(2S,3R)-4-((2-methoxyethyl)(methyl)amino)-3-methyl-2-(methylamino)butanoyl]-cyclosporin] (cyclo(A[dA][NMeL][NMeL][NMeV][MeBmt][Abu][dNMeA][X43]V[NMeL])) | 0.9 | 1900 | – | 8.9 | 0.9 | 1.7 | 41
C/C=C/C[C@@H](C)[C@@H](O)[C@H]1C(=O)N[C@@H](CC)C(=O)N(C)[C@H](C)C(=O)N(C)[C@@H]([C@H](C)COC(=O)N2CCN(CC)CC2)C(=O)N[C@@H](C(C)C)C(=O)N(C)[C@@H](CC(C)C)C(=O)N[C@@H](C)C(=O)N[C@H](C)C(=O)N(C)[C@@H](CC(C)C)C(=O)N(C)[C@@H](CC(C)C)C(=O)N(C)[C@@H](C(C)C)C(=O)N1C [Compound 2.5.24, 3-[D-Ala]-4-[(2S,3S)-4-((4-ethylpiperazine-1-carbonyl)oxy)-3-methyl-2-(methylamino)butanoyl]-cyclosporin] (cyclo(A[dA][NMeL][NMeL][NMeV][MeBmt][Abu][dNMeA][X56]V[NMeL])) | 0.3 | 1900 | – | 3.6 | 0.3 | 0.5 | 23
C/C=C/C[C@@H](C)[C@@H](O)[C@H]1C(=O)N[C@@H](CC)C(=O)N(C)[C@H](C)C(=O)N(C)[C@@H]([C@H](C)CCCN2CCN(CC)CC2)C(=O)N[C@@H](C(C)C)C(=O)N(C)[C@@H](CC(C)C)C(=O)N[C@@H](C)C(=O)N[C@H](C)C(=O)N(C)[C@@H](CC(C)C)C(=O)N(C)[C@@H](CC(C)C)C(=O)N(C)[C@@H](C(C)C)C(=O)N1C (stereo in doubt) [Compound 2.19.4, 3-[D-Ala]-4-[(2S,3R)-6-(4-ethylpiperazin-1-yl)-3-methyl-2-(methylamino)hexanoyl]-cyclosporin] | 0.4 | 2600 | – | 8.8 | 0.4 | 0.6 | 60
C/C=C/C[C@@H](C)[C@@H](O)[C@H]1C(=O)N[C@@H](CC)C(=O)N(C)[C@H](C)C(=O)N(C)[C@@H]([C@@H](C)CN2CCN3C(=O)OCC3C2)C(=O)N[C@@H](C(C)C)C(=O)N(C)[C@@H](CC(C)C)C(=O)N[C@@H](C)C(=O)N[C@H](C)C(=O)N(C)[C@@H](CC(C)C)C(=O)N(C)[C@@H](CC(C)C)C(=O)N(C)[C@@H](C(C)C)C(=O)N1C (stereo partly drawn) [Compound 2.17.10, 3-[D-Ala]-4-[(2S,3S)-3-methyl-2-(methylamino)-4-((S)-3-oxotetrahydro-1H-oxazolo[3,4-a]pyrazin-7(3H)-yl)butanoyl]-cyclosporin] (cyclo(A[dA][NMeL][NMeL][NMeV][MeBmt][Abu][dNMeA][X38]V[NMeL])) | 0.5 | 1400 | – | 15 | 0.4 | 0.6 | 31
